The results in this text go back to ChEMBL document CHEMBL3351617, “Concise syntheses of 7-anilino-indoline-N-benzenesulfonamides as antimitotic and vascular disrupting agents” (Bioorg Med Chem, 2014).

By IC50 is commonly meant the concentration needed to halve the response being measured. The inhibition is the share of the control response that was lost under treatment.

Data set [1] deals with HT-29. In words: Antiproliferative activity against human HT-29 cells. Type of data set: functional, cell-based.
Data set [2] in a line: Retention time of the compound by HPLC. Type of data set: physicochemical.
A short description of data set [3]: Antiproliferative activity against human MKN45 cells. Type of data set: functional, cell-based. Particulars: MKN-45.
The subject of data set [4] is KB. In words: Antiproliferative activity against human KB cells. Type of data set: functional, cell-based.
Data set [5] can be described thus: Antiproliferative activity against human KB-7d cells. The data set is classed as functional, cell-based. Particulars: KB7D.
Data set [6] deals with KB. Nature of the data set: Ratio of ABT751 IC50 to compound IC50 for human KB cells. Type of data set: functional.
For data set [7], the target named is Tubulin. Nature of the data set: Inhibition of tubulin (unknown origin) polymerization by spectrophotometry. The data set is classed as protein-complex assay, Homo sapiens.
Data set [8] deals with T1, Tubulin (Homo sapiens) (UniProt P68371+Q9H4B7+P0DPH7+P68366+Q13509+Q71U36+P04350+Q3ZCM7+P07437+P68363+Q9BQE3+Q6PEY2+Q13885+Q9BVA1+Q9BUF5). In words: Displacement of [3H]colchicine from long-chain biotin-labeled tubulin (unknown origin) at 5 uM after 2 hrs by competition-binding scintillation proximity assay. The data set is classed as protein-complex assay. (In a radioligand displacement assay an active substance lowers the binding of a labelled ligand.)

Data set [9] has as its target T1, Tubulin (Homo sapiens). In words: Displacement of [3H]colchicine from long-chain biotin-labeled tubulin (unknown origin) at 1 uM after 2 hrs by competition-binding scintillation proximity assay. The data set is classed as protein-complex assay.
Data set [10] in a line: Antiproliferative activity against human KB-S15 cells. The data set is classed as functional, cell-based.
A short description of data set [11]: Antiproliferative activity against human KB-VIN10 cells. Type of data set: functional, cell-based.
The target in data set [12] is T1, Tubulin (Homo sapiens). In words: Inhibition of MAP-rich tubulin (unknown origin) polymerization measured every 30 seconds for 30 mins by spectrophotometry. The data set is classed as protein-complex assay.
Data set [13] deals with HUVEC. In words: Disruption of vasculature in HUVECs assessed as inhibition of VEGF-induced capillary tube formation by microscopy. The data set is classed as functional, cell-based. Particulars: Homo sapiens.
Data set [14] deals with T1, Tubulin (Homo sapiens). In words: Inhibition of MAP-rich tubulin (unknown origin) polymerization at 10 uM measured every 30 seconds for 30 mins by spectrophotometry. Type of data set: protein-complex assay.
In data set [15] the target is T1, Tubulin (Homo sapiens). In words: Competitive inhibition of [3H]colchicine binding to long-chain biotin-labeled tubulin (unknown origin) after 2 hrs by double-reciprocal plot analysis. The data set is classed as protein-complex assay.
Data set [16] concerns KB. In words: Cell cycle arrest in human KB cells assessed as accumulation at G2/M phase after 24 hrs using propidium iodide staining by flow cytometry. The data set is classed as functional, cell-based. (In flow cytometry, cells or beads pass a laser one at a time.)
Data set [17] relates to KB. In words: Cell cycle arrest in human KB cells assessed as reduction of cells at G1 phase at 25 to 400 nM after 24 hrs using propidium iodide staining by flow cytometry. The data set is classed as functional, cell-based.
Data set [18] relates to HUVEC. Nature of the data set: Cytotoxicity against HUVECs assessed as reduction in cell viability at 100 nM. Type of data set: cell-based. Particulars: human, 0.1 µM.
Data set [19] deals with KB. Nature of the data set: Cell cycle arrest in human KB cells assessed as reduction of cells at S phase at 25 to 400 nM after 24 hrs using propidium iodide staining by flow cytometry. The data set is classed as functional, cell-based.
Data set [20] deals with HUVEC. Nature of the data set: Disruption of vasculature in HUVECs assessed as inhibition of VEGF-induced capillary tube formation at 100 nM by microscopy. Particulars: Homo sapiens. The data set is classed as functional, cell-based.
Data set [21] has as its system KB. Nature of the data set: Cell cycle arrest in human KB cells assessed as accumulation of cells at sub-G1 phase at 100 nM after 24 hrs using propidium iodide staining by flow cytometry. Type of data set: functional, cell-based.
The test system of data set [22] is MKN-45. In words: Ratio of ABT751 IC50 to compound IC50 for human MKN45 cells. The data set is classed as functional.
Data set [23] concerns HT-29. Nature of the data set: Ratio of ABT751 IC50 to compound IC50 for human HT-29 cells. Type of data set: functional.

Structures are written as SMILES. Active and inactive are the calls of the source. No cut-off for these calls is given here.

For the molecule `COc1ccc(S(=O)(=O)N2CCc3cccc(Nc4ccc(F)c(F)c4)c32)cc1`, the IC50 in data set [1] was 968 nM; in data set [3] it was 726 nM; in data set [4] it was 412 nM. The same molecule had a Retention_time in [2] of 45.49 min.

With `COc1ccc(S(=O)(=O)N2CCc3cccc(Nc4ccc(F)cc4)c32)cc1`, the IC50 was determined as 588 nM in data set [1], 563 nM in [3] and 557 nM in data set [4]. Also, in data set [2], the Retention_time is 44.71 min.

`CC(=O)O[C@H]1C(=O)[C@@]2(C)[C@H]([C@H](OC(=O)c3ccccc3)[C@]3(O)C[C@H](OC(=O)[C@H](O)[C@@H](NC(=O)c4ccccc4)c4ccccc4)C(C)=C1C3(C)C)[C@]1(OC(C)=O)CO[C@@H]1C[C@@H]2O` [PACLITAXEL] had a half-maximal inhibitory concentration (IC50) in data set [5] of 7.9 nM.

For the molecule `COc1ccc(S(=O)(=O)N2CCc3cccc(Nc4ccc(C(=O)O)cc4)c32)cc1`, the IC50 was 2380 nM in data set [1], 1390 nM in [3] and 846 nM in data set [4]. This molecule came in with a Retention_time in data set [2] of 33.94 min.

As for `CC[C@]1(O)C[C@H]2CN(CCc3c([nH]c4ccccc34)[C@@](C(=O)OC)(c3cc4c(cc3OC)N(C=O)[C@H]3[C@@](O)(C(=O)OC)[C@H](OC(C)=O)[C@]5(CC)C=CCN6CC[C@]43[C@@H]65)C2)C1` [VINCRISTINE], the 50% inhibitory concentration (IC50) in data set [5] was determined as 1.2 nM.

On to `COc1ccc(Nc2cccc3c2N(S(=O)(=O)c2ccc(OC)cc2)CC3)cc1`, for which the IC50 in data set [1] turned out to be 803 nM; in data set [3], 487 nM; in [4], 1200 nM. The molecule further came in with a Retention_time in [2] of 43.47 min.

Consider `COC(=O)c1ccc(Nc2cccc3c2N(S(=O)(=O)c2ccc(OC)cc2)CC3)cc1`, for which the IC50 in [1] was 678 nM; in [7], 4700 nM; in [3] it was 487 nM; in [4], 93.5 nM. Besides, in data set [2], the Retention_time is reported as 42.74 min. In data set [6], the “Ratio IC50” value is 3. In addition, the inhibition in [8] was found to be 66.9%; in data set [9] it was 41.4%.

As to `COc1cc([C@@H]2c3cc4c(cc3[C@@H](O[C@@H]3O[C@@H]5CO[C@@H](C)O[C@H]5[C@H](O)[C@H]3O)[C@H]3COC(=O)[C@H]23)OCO4)cc(OC)c1O` [ETOPOSIDE], the results for the IC50 in data set [10], in data set [11] and in data set [5] were 3500 nM, 23000 nM and 54000 nM, respectively.

With `COc1ccc(S(=O)(=O)N2CCc3cccc(Nc4ccc(C#N)cc4)c32)cc1`, the IC50 turned out to be 77.3 nM in data set [10]; 149 nM in data set [1]; 71.9 nM in [11]; 3200 nM in [7]; 92 nM in data set [3]; 71.1 nM in [5]. This molecule also yielded a half-inhibitory concentration (IC50) in data set [4] of 49.7 nM. Besides, the inhibition result in [12] is “Dose-dependent effect”; in data set [8] it was 86.4%; in [9] it was 83.6%. Besides, the values for the Activity entry in data set [13], in [16] and in [18] were “Dose-dependent effect”, “Dose-dependent effect” and “Non-toxic”, respectively. This molecule also displayed a Retention_time in data set [2] of 40.79 min. In addition, the inhibition result in [14] and in data set [15] was “Active” each time. The outcome in data set [17], in data set [19], in data set [20] and in data set [21] was Active.

In the case of `COc1ccc(S(=O)(=O)N2CCc3cccc(Nc4ccc(O)cc4)c32)cc1`, the half-maximal inhibitory concentration (IC50) was 511 nM in [1], 493 nM in data set [3] and 239 nM in data set [4]. The Retention_time in data set [2] is reported as 32 min.

As to `COc1ccc(S(=O)(=O)N2CCc3cccc(Nc4ccc([N+](=O)[O-])cc4)c32)cc1`, the IC50 in data set [10] turned out to be 95.4 nM; in data set [1], 191 nM; in [11] it was 109 nM; in data set [7] it was 3700 nM; in [3], 107 nM; in data set [5], 115 nM. The IC50 in [4] came to 101 nM. The same molecule had a Retention_time in data set [2] of 42.28 min. Further, the “Ratio IC50” value in [22] and in data set [23] was 1.5 throughout. In addition, the inhibition in data set [8] came out at 69.3%; in data set [9], 44%.

For `COc1ccc(S(=O)(=O)N2CCc3cccc(Nc4ccc(Cl)cc4)c32)cc1`, the 50% inhibitory concentration (IC50) in data set [1] is 658 nM; in data set [3], 463 nM; in data set [4] it was 1100 nM. The molecule further had a Retention_time in data set [2] of 48.11 min.

Take `COc1ccc(S(=O)(=O)N2CCc3cccc(Nc4ccccc4)c32)cc1`: the half-maximal inhibitory concentration (IC50) in data set [1] came to 343 nM; in [3] it was 187 nM; in data set [4], 342 nM. This molecule also yielded a Retention_time in data set [2] of 44.81 min.
